Data reported in patent US4102917A, “Substituted phenyl naphthalenesulfonic acids” (American Cyanamid Company, priority 1977, dated 1978).
Counter-ions that a name gives are not always drawn.

How the values were obtained:
human C1 = test: Test, Code 026 (C1 inhibitor); assay type: biochemical; settings: activity in wells, two-fold serial dilution assay; higher well number indicates higher activity
From the text: (§1) An active inhibitor protects C2 from C1 and C4; (ii) Test, Code 035 (C3-C9 inhibitor) -- This test determines the ability of the late components of human complement (C3-C9) to lyse EAC 142 in the presence of appropriate dilutions of the test compound. An active inhibitor protects EAC 142 from lysis by human C3-C9; (iii) Test, Code 036 (C-Shunt inhibitor) -- In this test human erythrocytes rendered fragile are lysed in autologous serum via the shunt pathway activated by cobra venom factor in the presence of appropriate dilutions of the test compound. Inhibition of the shunt pathway results in failure of lysis; (iv) Forssman Vasculitis Test -- Here, the well known complement dependent lesion, Forssman vasculitis, is produced in guinea pigs by intradermal injection of rabbit anti-Forssman antiserum. […]

[1] = test system: late components of human complement (C3-C9); test: Test, Code 035 (C3-C9 inhibitor), lysis of EAC 142; assay type: cell-based; settings: activity in wells, two-fold serial dilution assay; higher well number indicates higher activity; N=Negative
From the text: as §1

shunt pathway = test: Test, Code 036 (C-Shunt inhibitor), lysis of human erythrocytes via shunt pathway activated by cobra venom factor; assay type: cell-based; settings: activity in wells, two-fold serial dilution assay; higher well number indicates higher activity
From the text: as §1

whole complement = test: Complement Level Reduction Test (in vivo activity, guinea pig); settings: 200 mg/kg
From the text: An active inhibitor protects C2 from C1 and C4; (ii) Test, Code 035 (C3-C9 inhibitor) -- This test determines the ability of the late components of human complement (C3-C9) to lyse EAC 142 in the presence of appropriate dilutions of the test compound. An active inhibitor protects EAC 142 from lysis by human C3-C9; (iii) Test, Code 036 (C-Shunt inhibitor) -- In this test human erythrocytes rendered fragile are lysed in autologous serum via the shunt pathway activated by cobra venom factor in the presence of appropriate dilutions of the test compound. Inhibition of the shunt pathway results in failure of lysis; (iv) Forssman Vasculitis Test -- Here, the well known complement dependent lesion, Forssman vasculitis, is produced in guinea pigs by intradermal injection of rabbit anti-Forssman antiserum. The lesion is measured in terms of diameter, edema and hemorrhage and the extent to which a combined index of these is inhibited by prior intraperitoneal injection of the test compound at 200 mg/kg is then reported, unless otherwise stated; (v) Forssman Shock Test -- Lethal shock is produced in guinea pigs by an i.v. injection of anti-Forssman antiserum and the harmonic mean death time of treated guinea pigs is compared with that of simultaneous controls; (vi) Complement Level Reduction Test -- In this test, the above dosed guinea pigs, or others, are bled for serum and the complement level is determined in undiluted serum by the capillary tube method of U.S. Pat. No. 3,876,376 and compared to undosed control guinea pigs; and (vii) Cap 50 Test -- Here, appropriate amounts of the test compound are added to a pool of guinea pig serum in vitro, after which the undiluted serum capillary tube assay referred to above is run. The concentration of compound inhibiting 50 % is reported.
With reference to Table I, guinea pigs weighing about 300 g were dosed intravenously (i.v.) or intraperitoneally (i.p.) with 200 mg/kg of the test compound dissolved in saline and adjusted to pH 7-8. […] The serum was tested for whole complement using the capillary tube assay. Percent inhibition was calculated by comparison with simultaneous controls. The results appear in Table I together with results of tests, code 026, 035, 036, Cap 50, % inhibition and Forssman shock.

complement system = settings: literature; cited from earlier work
[2] = test system: hereditary angioneurotic edema; settings: literature; cited from earlier work
human serum = settings: in vitro and in vivo, literature; cited from earlier work

O=C(O)c1cc(NC(=O)c2cc(NC(=S)Nc3cc(S(=O)(=O)O)cc4cc(S(=O)(=O)O)cc(S(=O)(=O)O)c34)cc(C(=O)Nc3cc(C(=O)O)cc(C(=O)O)c3)c2)cc(C(=O)O)c1 [5,5'-{{5-[2-Thio-3-(3,6,8-trisulfo-1-naphthyl)ureido]-1,3-phenylene}bis(carbonylimino)}diisophthalic acid heptasodium salt]
C1 026 Wells (human C1): +5 Wells
C-Late 035 Wells [1]: N
Shunt Inhibition 036 Wells (shunt pathway): +1 Wells

O=C(Nc1cc(S(=O)(=O)[O-])cc2cc(S(=O)(=O)[O-])cc(S(=O)(=O)[O-])c12)c1cc(NC(=S)Nc2cc(S(=O)(=O)[O-])cc3cc(S(=O)(=O)[O-])cc(S(=O)(=O)[O-])c23)cc(C(=O)Nc2cc(S(=O)(=O)[O-])cc3cc(S(=O)(=O)[O-])cc(S(=O)(=O)[O-])c23)c1.[Na+].[Na+].[Na+].[Na+].[Na+].[Na+].[Na+].[Na+].[Na+] [8-{3-[3,5-Bis(3,6,8-trisulfo-1-naphthylcarbamoyl)phenyl] -2-thioureido}-1,3,6-naphthalenetrisulfonic acid nonasodium salt]
C-Late 035 Wells [1]: +1 Wells
In Vivo Activity (Guinea Pig) % Inhibition, Intraperitoneal, 30 min (whole complement; i.p., 30 min): -50%
In Vivo Activity (Guinea Pig) % Inhibition, Intraperitoneal, 60 min (whole complement; i.p., 60 min): -57%
In Vivo Activity (Guinea Pig) % Inhibition, Intraperitoneal, 120 min (whole complement; i.p., 120 min): -74%
In Vivo Activity (Guinea Pig) % Inhibition, Intravenous, 2 min (whole complement; i.v., 2 min): -97%
In Vivo Activity (Guinea Pig) % Inhibition, Intravenous, 30 min (whole complement; i.v., 30 min): -79%
In Vivo Activity (Guinea Pig) % Inhibition, Intravenous, 120 min (whole complement; i.v., 120 min): -58%

Cc1ccc(C(=O)Nc2ccc(S(=O)(=O)O)c3cc(S(=O)(=O)O)cc(S(=O)(=O)O)c23)cc1NC(=O)c1cccc(NC(=O)Nc2cccc(C(=O)Nc3cc(C(=O)Nc4ccc(S(=O)(=O)O)c5cc(S(=O)(=O)O)cc(S(=O)(=O)O)c45)ccc3C)c2)c1 [Suramin]
anticomplementary effect / complement inhibition (complement system): competitive inhibitor of the complement system
use in the treatment of hereditary angioneurotic edema [2]: used with success in the treatment of hereditary angioneurotic edema

Nc1ccc2cc(S(=O)(=O)O)cc(O)c2c1N=Nc1ccc(NC(=O)Nc2ccc(N=Nc3c(N)ccc4cc(S(=O)(=O)O)cc(O)c34)c(S(=O)(=O)O)c2)cc1S(=O)(=O)O [chlorazol fast pink, 3,3'-ureylenebis-[6-(2-amino-8-hydroxy-6-sulfo-1-naphthylazo)]benzenesulfonic acid, tetrasodium salt]
anticomplementary effect / complement inhibition (complement system): reported to have an anticomplementary effect

NCCCCCC(=O)O [epsilon-aminocaproic acid]
use in the treatment of hereditary angioneurotic edema [2]: used with success in the treatment of hereditary angioneurotic edema

NC[C@H]1CC[C@H](C(=O)O)CC1 [tranexamic acid]
use in the treatment of hereditary angioneurotic edema [2]: used with success in the treatment of hereditary angioneurotic edema

heparin
anticomplementary effect / complement inhibition (complement system): reported to have an anticomplementary effect

pentosan-poly-sulfoester
anticomplementary activity, reduction in the total hemolytic complement activity (human serum): anticomplementary activity on human serum both in vitro and in vivo
